Assay results: patent publication US11634425B2, “Pharmaceutical compounds” (priority 2019, dated 2023)
Where two headings read alike, the source gives them in different places.

How the values were obtained:
[1] = test system: RSV A2; assay: RSV plaque reduction assay; assay type: cell-based, respiratory syncytial virus (RSV); conditions: mean of at least two experiments
Summary of the method: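 EC50 is the 50% reduction in immunostained plaque count versus virus-control wells, interpolated from variable-slope 4-parameter fits and averaged over at least two runs. Hep-G2 cells were infected with 100 PFU/well RSV A2 premixed with compound, with the inoculum removed after 2 h. Incubation continued at 37 °C for 2 days under a CMC overlay with compound.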

[2] = in vitro; assay type: in vitro ADME; conditions: hepatocytes, 3 μM compound, read-out: Liver Hepatocyte Stability t1/2
Method: Compounds were subjected to the following assays to investigate liver microsomal stability and hepatocyte stability.
Hepatocyte Incubation: Experimental Procedure
Cryopreserved pooled hepatocytes were purchased from a reputable commercial supplier and stored in liquid nitrogen prior to use. Williams E media supplemented with 2 mM L-glutamine and 25 mM HEPES and test compound (final substrate concentration 3 μM; final DMSO concentration 0.25%) are pre-incubated at 37° C. prior to the addition of a suspension of cryopreserved hepatocytes (final cell density 0.5×10^6 viable cells/mL in Williams E media supplemented with 2 mM L-glutamine and 25 mM HEPES) to initiate the reaction. The final incubation volume is 500 μL. Two control compounds were included with each species, alongside appropriate vehicle control. The reactions are stopped by transferring 50 μL of incubate to 100 μL acetonitrile containing internal standard at the appropriate time points. Samples were removed at 6 time points (0, 5, 15, 30, 45 and 60 min) over the course of a 60 min experiment. The termination plates are centrifuged at 2500 rpm at 4° C. for 30 min to precipitate the protein. Following protein precipitation, the sample supernatants were combined in cassettes of up to 4 compounds and analysed using generic LC-MS/MS conditions. From a plot of ln peak area ratio (compound peak area/internal standard peak area) against time, the gradient of the line is determined. Subsequently, half-life (t1/2) and intrinsic clearance (CLint) were calculated.

[3] = Cell cytotoxicity (CC50); assay type: cell-based; conditions: human; mean of at least two experiments
Summary of the method: (§1)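 Values are means of ≥2 independent runs, rounded to whole units, from 4-parameter variable-slope curve fits. Toxicity measured in Hep-G2 cells run alongside RSV plaque-reduction assays.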

[4] = in vivo; assay type: in vivo, rat (Sprague Dawley); conditions: male SD rat; for Vd / clearance / Cmax / half-life / AUC(0-t): Sprague Dawley, in vivo; for Cmax / C 8 h: IV 1 mg/kg / PO 10 mg/kg study; for AUC(0-t): read-out: PO AUClast
Method: The pharmacokinetics of compounds were studied in vivo in rats at doses of 1 mg/kg (IV) and 10 mg/kg (PO).
Male rats [Sprague Dawley (SD)] surgically prepared with a jugular vein cannula were treated with experimental compounds via intravenous administration (IV; n=3; 1 mg/kg) or oral administration (PO; n=3; 10 mg/kg). Compounds were formulated as a solution in 40:60 dimethylacetamide:saline (IV administration) and a solution of 10% DMSO, 20% cremaphor in water (70%) (PO administration). […] Serial blood samples were collected via the cannula at 0.02, 0.08, 0.25, 0.5, 1, 2, 4, 6, 8 and 24 h post IV dosing of compound, and at 0.08, 0.25, 0.5, 1, 2, 4, 6, 8 and 24 h post oral dosing of compound, and plasma was prepared by centrifugation and stored immediately at −80° C. Samples were subsequently thawed, prepared for analysis by protein precipitation with acetonitrile, and analysed by tandem LCMS using electrospray ionisation using a matrix-matched calibration curve. PK parameters were calculated from the resulting data.

[5] = in vitro; assay type: in vitro ADME; conditions: 1 μM compound, 0.5 mg/mL protein; for half-life at 1 μM: microsomes, pH 7.4, read-out: Liver Microsomal Stability t1/2
Summary of the method: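 Pooled liver microsomes (0.5 mg/mL protein) in 0.1 M phosphate pH 7.4 with 1 μM compound and 1 mM NADPH at 37° C., sampled at 0–45 min; minus-NADPH control at 45 min. Acetonitrile quench, LC-MS/MS; t1/2 and CLint from ln peak-area ratio vs time slope.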

[6] = test system: Hep-G2 cells; assay: Cell cytotoxicity (CC50); assay type: cell-based; conditions: mean of at least two experiments
Summary of the method: as §1

[7] = human respiratory syncytial virus, HepG2, Hep-G2 cells
[8] = IV 1 mg/kg, read-out: IV t1/2 (converted)
[9] = PO 10 mg/kg, read-out: PO t1/2 (converted)

For `CCc1ccc(-c2nn3cccnc3c2C(=O)N[C@H]2N=C(c3ccccc3)c3cccc(F)c3NC2=O)c(C)n1` [Example 57, 2-(6-Ethyl-2-methylpyridin-3-yl)-N-[(3S)-9-fluoro-2-oxo-5-phenyl-2,3-dihydro-1H-1,4-benzodiazepin-3-yl]pyrazolo[1,5-a]pyrimidine-3-carboxamide], the EC50 [1, 7] was 56 nM, the half-life at 3 μM ([2]; dog) was 43.3 h and the half-life at 3 μM ([2]; human) was over 3.1 h. It also gave a half-life at 3 μM ([2]; rat) of 0.785 h, a CC50 [3] of over 25000 nM and a Vd ([4]; IV 1 mg/kg) of 0.6 L/kg. It also gave a clearance ([4]; IV 1 mg/kg) of 19.2 mL/min/kg, a Cmax [4] of 912 ng/mL and a half-life [4, 8] of 1.4 h. For the same compound, the AUC(0-t) ([4]; PO 10 mg/kg) was 3660 ng·h/mL, the half-life [4, 9] was 2.6 h and the “C 8 h” value [4] was 142 ng/mL. The F ([4]; IV 1 mg/kg, PO 10 mg/kg) was 48%, the half-life at 1 μM ([5]; dog) was 1.38 h and the half-life at 1 μM ([5]; human) was 1.68 h. For the same compound, the half-life at 1 μM ([5]; rat) was 0.715 h.
`Cc1ccc2nc(-c3ccccc3)c(C(=O)N[C@H]3N=C(c4ccccc4)c4cccc(F)c4NC3=O)n2n1` [Example 93, N-[(3S)-9-Fluoro-2-oxo-5-phenyl-1,3-dihydro-1,4-benzodiazepin-3-yl]-6-methyl-2-phenylimidazo[1,2-b]pyridazine-3-carboxamide] showed an EC50 [1, 7] of 33 nM, a half-life at 3 μM ([2]; dog) of 7.42 h and a half-life at 3 μM ([2]; human) of 4.9 h. The half-life at 3 μM ([2]; rat) was 1.19 h, the CC50 [3] was over 25000 nM and the half-life at 1 μM ([5]; dog) was 23.7 h. It also gave a half-life at 1 μM ([5]; human) of 34.8 h and a half-life at 1 μM ([5]; rat) of 0.685 h.
Compound `Cc1ccc2nc(-c3ccc(N4CCOCC4)nc3)c(C(=O)N[C@H]3N=C(c4ccccc4)c4cccc(F)c4NC3=O)n2n1` [Example 105, N-[(3S)-9-fluoro-2-oxo-5-phenyl-1,3-dihydro-1,4-benzodiazepin-3-yl]-6-methyl-2-(6-morpholin-4-ylpyridin-3-yl)imidazo[1,2-b]pyridazine-3-carboxamide] has an EC50 ([1]; Hep-G2 cells) of 38 nM and a CC50 [6] of over 25000 nM.
With “2-[4-Methyl-6-(propan-2-ylamino)pyridin-3-yl]-N-[(3S)-9-fluoro-2-oxo-5-phenyl-1,3-dihydro-1,4-benzodiazepin-3-yl]pyrazolo[1,5-a]pyrimidine-3-carboxamide [Example 62]” the EC50 ([1]; Hep-G2 cells) was 74 nM, the CC50 [6] was over 25000 nM and the “Liver Microsomal Stability t1/2” value ([5]; dog) was 0.828 h. For the same compound, the “Liver Microsomal Stability t1/2” value ([5]; human) was over 2.33 h and the “Liver Microsomal Stability t1/2” value ([5]; rat) was 1.19 h.
Compound `CN1CCc2ccc(-c3nn4cccnc4c3C(=O)N[C@H]3N=C(c4ccccc4)c4ccccc4NC3=O)cc21` [Example 11, 2-(1-Methyl-2,3-dihydroindol-6-yl)-N-[(3S)-2-oxo-5-phenyl-1,3-dihydro-1,4-benzodiazepin-3-yl]pyrazolo[1,5-a]pyrimidine-3-carboxamide] has an EC50 ([1]; Hep-G2 cells) of 89 nM and a CC50 [6] of over 25000 nM.
For `O=C(N[C@H]1N=C(c2ccccc2)c2cccc(F)c2NC1=O)c1c(-c2cncc(Cl)c2)nn2cccnc12` [Example 28, 2-(5-Chloropyridin-3-yl)-N-[(3S)-9-fluoro-2-oxo-5-phenyl-1,3-dihydro-1,4-benzodiazepin-3-yl]pyrazolo[1,5-a]pyrimidine-3-carboxamide], the EC50 [1, 7] was 41 nM, the half-life at 3 μM ([2]; dog) was 4 h and the half-life at 3 μM ([2]; human) was 3.23 h. The half-life at 3 μM ([2]; rat) was over 3.1 h, the CC50 [3] was over 25000 nM and the Vd ([4]; IV 1 mg/kg) was 1.8 L/kg. The clearance ([4]; IV 1 mg/kg) was 7.8 mL/min/kg, the Cmax [4] was 785 ng/mL and the half-life [4, 8] was 3.1 h. For the same compound, the AUC(0-t) ([4]; PO 10 mg/kg) was 11100 ng·h/mL, the half-life [4, 9] was 5.4 h and the “C 8 h” value [4] was 629 ng/mL. For the same compound, the F ([4]; IV 1 mg/kg, PO 10 mg/kg) was 54%, the half-life at 1 μM ([5]; dog) was 4.28 h and the half-life at 1 μM ([5]; human) was 14.2 h. The half-life at 1 μM ([5]; rat) was 44.7 h.
“2-[2-Methyl-6-(propan-2-ylamino)pyridin-3-yl]-N-[(3S)-2-oxo-5-phenyl-1,3-dihydro-1,4-benzodiazepin-3-yl]pyrazolo[1,5-a]pyrimidine-3-carboxamide [Example 60]” showed an EC50 ([1]; Hep-G2 cells) of 41 nM and a CC50 [6] of over 25000 nM.
Compound `O=C(N[C@H]1N=C(c2ccccc2)c2cccc(F)c2NC1=O)c1c(-c2ccccc2F)nn2cccnc12` [Example 3, N-[(3S)-9-fluoro-2-oxo-5-phenyl-1,3-dihydro-1,4-benzodiazepin-3-yl]-2-(2-fluorophenyl)pyrazolo[1,5-a]pyrimidine-3-carboxamide] has an EC50 [1, 7] of 90 nM, a half-life at 3 μM ([2]; dog) of over 3.1 h and a half-life at 3 μM ([2]; human) of 4.28 h. The half-life at 3 μM ([2]; rat) was 1.36 h, the CC50 [3] was over 25000 nM and the half-life at 1 μM ([5]; dog) was over 2.33 h. It also gave a half-life at 1 μM ([5]; human) of 5.5 h and a half-life at 1 μM ([5]; rat) of over 2.33 h.
Compound `O=C(N[C@H]1N=C(c2ccccc2)c2cccc(F)c2NC1=O)c1c(-c2ccccc2F)nc2cccnn12` [Example 18, N-[(3S)-9-fluoro-2-oxo-5-phenyl-1,3-dihydro-1,4-benzodiazepin-3-yl]-2-(2-fluorophenyl)imidazo[1,2-b]pyridazine-3-carboxamide] has an EC50 [1, 7] of 28 nM, a half-life at 3 μM ([2]; dog) of 2.12 h and a half-life at 3 μM ([2]; human) of 11.6 h. The half-life at 3 μM ([2]; rat) was 1.11 h, the CC50 [3] was over 25000 nM and the half-life at 1 μM ([5]; dog) was 6.9 h. The half-life at 1 μM ([5]; human) was 12.3 h and the half-life at 1 μM ([5]; rat) was 0.838 h.
For `Cc1ccn2nc(-c3ccccc3F)c(C(=O)N[C@H]3N=C(c4ccccc4)c4cccc(F)c4NC3=O)c2n1` [Example 23, N-[(3S)-9-Fluoro-2-oxo-5-phenyl-1,3-dihydro-1,4-benzodiazepin-3-yl]-2-(2-fluorophenyl)-5-methylpyrazolo[1,5-a]pyrimidine-3-carboxamide], the EC50 [1, 7] was 21 nM, the half-life at 3 μM ([2]; dog) was 3.57 h and the half-life at 3 μM ([2]; human) was 8.65 h. For the same compound, the half-life at 3 μM ([2]; rat) was 1.18 h, the CC50 [3] was over 25000 nM and the half-life at 1 μM ([5]; dog) was 15 h. The half-life at 1 μM ([5]; human) was 6.65 h and the half-life at 1 μM ([5]; rat) was 0.555 h.
`COc1ccc2nc(-c3ccncc3F)c(C(=O)N[C@H]3N=C(c4ccccc4)c4cccc(F)c4NC3=O)n2n1` [Example 119, N-[(3S)-9-fluoro-2-oxo-5-phenyl-1,3-dihydro-1,4-benzodiazepin-3-yl]-2-(3-fluoropyridin-4-yl)-6-methoxyimidazo[1,2-b]pyridazine-3-carboxamide] gave an EC50 [1, 7] of 28 nM, a half-life at 3 μM ([2]; dog) of 4.92 h and a half-life at 3 μM ([2]; human) of over 3.1 h. The half-life at 3 μM ([2]; rat) was 1.97 h, the CC50 [3] was over 25000 nM and the half-life at 1 μM ([5]; dog) was 7.4 h. The half-life at 1 μM ([5]; human) was 2.68 h and the half-life at 1 μM ([5]; rat) was 0.863 h.
Compound “N-[(3S)-9-Fluoro-2-oxo-5-phenyl-l,3-dihydro-1,4-benzodiazepin-3-yl]-2-phenylpyrazolo[1,5-a]pyrimidine-3-carboxamide [Example 17]” has an EC50 ([1]; Hep-G2 cells) of 90 nM and a CC50 [6] of over 25000 nM.
In the case of `Cc1ccc2nc(-c3ccccc3F)c(C(=O)N[C@H]3N=C(c4ccccc4)c4cccc(F)c4NC3=O)n2n1` [Example 19, N-[(3S)-9-fluoro-2-oxo-5-phenyl-1,3-dihydro-1,4-benzodiazepin-3-yl]-2-(2-fluorophenyl)-6-methylimidazo[1,2-b]pyridazine-3-carboxamide], the EC50 [1, 7] is reported as 31 nM, the half-life at 3 μM ([2]; dog) is reported as over 3.1 h and the half-life at 3 μM ([2]; human) is reported as 2.02 h. It also gave a half-life at 3 μM ([2]; rat) of 1.6 h, a CC50 [3] of over 25000 nM and a half-life at 1 μM ([5]; dog) of over 2.33 h. The half-life at 1 μM ([5]; human) was over 2.33 h and the half-life at 1 μM ([5]; rat) was 0.477 h.
